Measured values as given in US20260060947A1 (INSTITUT PASTEUR DE MONTEVIDEO, priority 2019, published 2026).
Where “and” joins values, the source holds several entries; their conditions need not be identical. Equal entries are not always repeated. Entries after “also recorded” stand apart in the source; their conditions may differ.

Experiments:
[1] = Electrophilic reactivity: reaction between BANA and β-mercaptoethanol followed by UV-Visible spectra; assay type: physicochemical; conditions: BANA 30 μM, β-ME 300 μM, phosphate buffer 20 mM pH=7.4, scans each min up to 15 min
Protocol: Most electrophilic nitroalkene compounds exert their pharmacological activity via a Michael addition reaction with nucleophiles. To study the electrophilic properties of BANA, the reaction between -mercaptoethanol (BME) and BANA was studied spectrophotometrically.
The electrophilic reactivity of BANA compound was determined by analyzing the UV-Visible spectra of the reaction between BANA and β-Mercaptoethanol (β-ME). BANA (30 μM) was incubated with β-ME (300 μM) in Phosphate buffer (20 mM) pH=7.4, and scans were taken each min up to 15 min.

[2] = BANA plasma levels by RP-HPLC after oral administration; assay type: in vivo, SOD1^G93A rats
Protocol: Only female transgenic rats showing weakness and gait alterations in the […] as the first clinical sign were selected for BANA treatment studies. Rats were divided randomly into BANA or vehicle-treated groups. BANA was freshly prepared in buffer phosphate (PB), and administrated daily at a dose of 100 mg/kg using a curved stainless steel gavage needle with 3-mm ball tip. Rats were treated from day-1 post-paralysis for 15 days or until end-stage when they were euthanized.
For the detection of BANA in plasma, experiments were performed using RP-HPLC analysis (Agilent 1200 HPLC system). Rats were sacrificed and plasma samples were obtained. 100 μL of plasma was incubated with HgCl2 (20 mM) at 37° C. for 30 minutes and after that extracted with 900 μL of acetonitrile (ACN) and injected into HPLC in a 20-40% gradient of B in 10 minutes. BANA plasma concentration was calculated from a standard curve using Salicylate as an internal standard. (CPAK C-18, […], 150 mm×3.9 mm I.D. column; A phase: H2O 0.1% Formic acid; B phase: ACN 0.1% Formic acid; detection at 300 nm)
Rates were dosed with 100 mg/kg/day of BANA administered orally.

[3] = LC50 in cell culture of SOD1^G93A adult microglia; assay type: cell-based; conditions: rat
inflammasome = test: LPS/ATP-induced inflammasome activation in BV2 cells (western blot of IL-1β); assay type: cell-based, murine; conditions: treatment in second signal (ATP), compared to vehicle or sodium benzoate
Protocol: FIG. 3B: For inflammasome activation, BV2 cells were treated with LPS and ATP. BANA or B.A treatment was performed in second signal (ATP). Presence of pro-IL1β in cell lysates (CL) and cleaved IL-1β in supernatants (SN) was determined by western blot analysis. […] All data are expressed as mean±SEM.

NLRP3 inflammasome = test: Inflammasome activation in THP-1 cells (LPS and ATP), IL-1β ELISA; assay type: cell-based, Human; conditions: 30 μM, in first or second signal (LPS and ATP), compared with vehicle
Protocol: (§1) The effect of BANA or BA over NF-κB-dependent gene expression was studied by qPCR using THP-1 cells. THP-1 cells were differentiated into macrophages and treated with BANA (30 μM) or BA (30 μM) for 2 hs, followed by stimulation with LPS (100 ng/mL, for 3-4 h).
For inflammasome activation, THP-1 cells were treated with LPS (as above) followed by exposure to ATP (5 mM, 45 min). IL-1β in the supernatant was then measured by ELISA (B&D OptEIA TM, San Diego, CA, USA).

NF-κB [4] = test: LPS-induced NF-κB-dependent gene expression in THP-1 cells (qPCR); assay type: cell-based, Human; conditions: 30 μM for 2 hs, then LPS 100 ng/mL
Protocol: as §1
TNFα, CCL2, IL6 and IL-1β expression was analyzed by RT-PCR. Real-time PCR analysis was conducted as follows: Total mRNA was extracted from THP-1 cells to quantify TNFα, IL-6 and MCP-1-fold change gene expression over control (β-actin) by qPCR assay. Purified RNA was transcripted to cDNA using Superscript II Reverse Transcriptase with Oligo (dT). The cDNA for real-time PCR was obtained with a Piko 24 Thermal Cycler (Thermo Scientific). mRNA expression analysis was calculated using the ddCt method with β-Actin as the house keeping gene. SYBR Green was used as DNA binding dye and the qRT-PCR was done in an Eco Illumina thermocycler. Human primers sequences were used for THP-1 cells: […]

NF-κB [5] = test: LPS-induced NF-κB activation in NF-κB-RE-Luc reporter mouse; assay type: in vivo; conditions: intraperitoneal, 2 h before LPS; BANA 10, 20 and 30 mg/kg; BA 30 mg/kg; DMF 30 mg/kg
Protocol: To determine whether BANA was capable of preventing LPS-induced NF-κB activation, intraperitoneal administration of BANA (10, 20, and 30 mg/kg) were followed by LPS intraperitoneal administration to an NF-κB-reporter transgenic mouse.

NF-κB [6] = test: TNFα-induced NF-κB activation in HT-29 NF-κB reporter cell line (flow cytometry); assay type: cell-based; conditions: BANA 10, 20, 30 μM, BA 30 μM, DMF 30 μM before TNFα
Protocol: The effects of BANA on LPS- or TNFα-induced NF-κB activation were also assayed in cell cultures of BV2 microglial cell line and primary adult microglia isolated from symptomatic SOD1^G93A rats, and HT-29 NF-κB reporter cell line, respectively.

NF-kB = NF-kB activation after sciatic nerve section in NF-kB-RE-Luc mice (in vivo luminescence); set-up: species or system mouse; conditions: oral 100 mg/kg/day day 0 to day 4, vs vehicle
Protocol: FIG. 17A: Scheme of the experimental design in which NF-kB-RE-Luc tg mice were treated with 100 mg/kg/day of BANA or vehicle starting immediately before sciatic nerve section (day 0) until day 4.
For NF-kB in vivo imaging studies, the NF-kB-RE-Luc random transgenic mouse model (Taconic, BALB/c-Tg(Rela-luc)31Xen) aged 6-8 weeks was used. These animals carry a transgene containing 6 NF-kB-responsive elements (RE) from the CMVα (immediate early) promoter placed upstream of a basal SV40 promoter, and a modified firefly luciferase cDNA (Promega pGL3). Animals were randomized divided into two groups and orally administrated with 100 mg/kg of BANA or Vehicle (phosphate buffer) starting immediately before sciatic nerve section in the right hindlimb and continuing for 4 days. At day 1, 2 and 4 post-surgery, differences in luciferase activity were compared between groups. To accomplish that, 150 mg/kg of the substrate D-luciferin (#K9918PE, XenoLight) dissolved in PBS, pH 7.4, was injected intraperitoneally to each mouse. […] Changes in NF-kB activity were quantified after comparing the differences of luminescence in the right hindlimb between groups, using ImageJ software.

## O=C(O)c1ccc(/C=C/[N+](=O)[O-])cc1 [BANA, (E)-4-(2-nitrovinyl) benzoic acid]
[1]
  reaction with β-mercaptoethanol (UV-Visible absorbance): react with 3-ME, resulting in a decreased in absorbance
[2]; SOD1^G93A symptomatic rats, 15 days oral daily 100 mg/kg, plasma incubated with HgCl2 (20 mM, 37° C., 30 min), 100 mg/kg
  [BANA] in plasma, sample + HgCl2: 3.69 μm and 3.45 μm and 3.58 μm
[2]; female, SOD1^G93A transgenic, rat, plasma, po, 100 mg/kg, SOD1^G93A symptomatic rats, 15 days oral daily 100 mg/kg, plasma incubated with HgCl2 (20 mM, 37° C., 30 min), read-out: [BANA] in plasma, sample + HgCl2
  concentration at 15 days: 3.29 µM
[2]; rats, 100 mg/kg/day orally, HPLC
  BANA plasma levels reached: 3.49 µM
[2]; rats, oral 100 mg/kg/day for 5 days
  fraction of plasma BANA covalently linked to proteins: more than 90%
[2]; rats, oral administration
  plasma concentration after oral administration (in words): low micromolar concentration
[3]
  CC50: 30 µM
inflammasome
  LPS/ATP-induced inflammasome activation (release of IL-1β adjusted to pro-IL-1β): inhibited
NLRP3 inflammasome
  release of IL-1β: almost completely prevented
NF-κB [4]
  levels of mRNA coding for TNFα, MCP-1 and IL-6: potently prevented; also recorded: abrogated
NF-κB [5]
  LPS-induced NF-κB activation in vivo: significantly decreased; also recorded: significantly inhibited
NF-κB [6]
  TNFα-induced NF-κB activation: potently prevented
NF-kB
  NF-kB luminescence in right hindlimb after sciatic nerve section: significantly prevented
